Consider 7 molecules from ChEMBL document CHEMBL2150974 (J Med Chem, 2012).

As usually defined, the IC50 is the concentration that gives 50% inhibition. A lower IC50 goes with higher potency.

Molecules are shown by their SMILES. Activity calls are given as the source filed them. No cut-off for these calls is given here.

Assay [1] deals with Casein kinase II subunit alpha (Homo sapiens) (UniProt P68400). Description: Inhibition of CK2alpha1 at 10 uM.
The target in assay [2] is T1, NUAK family SNF1-like kinase 1 (Homo sapiens) (UniProt O60285).
T1 sequence (whole entry): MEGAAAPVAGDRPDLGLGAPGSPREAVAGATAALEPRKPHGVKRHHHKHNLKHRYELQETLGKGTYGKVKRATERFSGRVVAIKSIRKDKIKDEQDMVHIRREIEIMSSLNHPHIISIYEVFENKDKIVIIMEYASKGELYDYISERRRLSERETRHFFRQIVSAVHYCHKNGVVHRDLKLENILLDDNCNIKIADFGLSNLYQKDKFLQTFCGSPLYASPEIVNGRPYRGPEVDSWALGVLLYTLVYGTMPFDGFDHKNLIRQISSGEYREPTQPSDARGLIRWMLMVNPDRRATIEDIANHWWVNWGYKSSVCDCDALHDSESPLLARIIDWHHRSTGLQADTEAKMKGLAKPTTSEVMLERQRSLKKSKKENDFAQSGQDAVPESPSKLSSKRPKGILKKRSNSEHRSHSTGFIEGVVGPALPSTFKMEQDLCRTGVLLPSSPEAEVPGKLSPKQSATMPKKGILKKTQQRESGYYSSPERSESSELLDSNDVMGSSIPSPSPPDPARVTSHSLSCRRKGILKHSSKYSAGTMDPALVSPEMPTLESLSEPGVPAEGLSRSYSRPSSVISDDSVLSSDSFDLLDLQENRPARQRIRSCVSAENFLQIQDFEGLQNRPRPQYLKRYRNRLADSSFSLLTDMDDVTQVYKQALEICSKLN
Description: Inhibition of ARK5 at 10 uM.

Assay [3] has as its target Hepatocyte growth factor receptor (Homo sapiens) (UniProt P08581). Description: Inhibition of MET at 10 uM.
Assay [4] deals with Insulin-like growth factor 1 receptor (Homo sapiens) (UniProt P08069). Description: Inhibition of IGF1R at 10 uM.
Insulin-like growth factor 1 receptor (Homo sapiens), sequence (P08069 31-736 limits assumed): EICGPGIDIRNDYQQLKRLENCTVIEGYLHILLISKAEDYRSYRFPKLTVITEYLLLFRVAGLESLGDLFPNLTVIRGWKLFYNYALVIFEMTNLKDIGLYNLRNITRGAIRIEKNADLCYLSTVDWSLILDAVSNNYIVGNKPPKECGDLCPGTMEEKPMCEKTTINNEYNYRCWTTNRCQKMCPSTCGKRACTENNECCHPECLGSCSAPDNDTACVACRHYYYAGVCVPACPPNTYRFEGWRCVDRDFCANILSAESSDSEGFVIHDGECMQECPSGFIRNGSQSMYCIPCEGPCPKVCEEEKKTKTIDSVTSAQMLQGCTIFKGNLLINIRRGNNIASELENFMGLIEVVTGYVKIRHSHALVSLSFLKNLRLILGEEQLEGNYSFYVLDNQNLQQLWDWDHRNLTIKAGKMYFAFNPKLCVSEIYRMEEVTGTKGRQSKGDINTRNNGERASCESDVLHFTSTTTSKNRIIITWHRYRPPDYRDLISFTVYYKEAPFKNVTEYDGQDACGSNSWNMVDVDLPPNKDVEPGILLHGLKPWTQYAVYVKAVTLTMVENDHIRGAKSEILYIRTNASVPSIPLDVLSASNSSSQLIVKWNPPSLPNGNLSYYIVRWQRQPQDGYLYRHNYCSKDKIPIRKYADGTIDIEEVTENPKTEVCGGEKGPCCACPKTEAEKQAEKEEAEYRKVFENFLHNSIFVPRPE
Insulin-like growth factor 1 receptor (Homo sapiens), sequence (P08069 741-1367 limits assumed): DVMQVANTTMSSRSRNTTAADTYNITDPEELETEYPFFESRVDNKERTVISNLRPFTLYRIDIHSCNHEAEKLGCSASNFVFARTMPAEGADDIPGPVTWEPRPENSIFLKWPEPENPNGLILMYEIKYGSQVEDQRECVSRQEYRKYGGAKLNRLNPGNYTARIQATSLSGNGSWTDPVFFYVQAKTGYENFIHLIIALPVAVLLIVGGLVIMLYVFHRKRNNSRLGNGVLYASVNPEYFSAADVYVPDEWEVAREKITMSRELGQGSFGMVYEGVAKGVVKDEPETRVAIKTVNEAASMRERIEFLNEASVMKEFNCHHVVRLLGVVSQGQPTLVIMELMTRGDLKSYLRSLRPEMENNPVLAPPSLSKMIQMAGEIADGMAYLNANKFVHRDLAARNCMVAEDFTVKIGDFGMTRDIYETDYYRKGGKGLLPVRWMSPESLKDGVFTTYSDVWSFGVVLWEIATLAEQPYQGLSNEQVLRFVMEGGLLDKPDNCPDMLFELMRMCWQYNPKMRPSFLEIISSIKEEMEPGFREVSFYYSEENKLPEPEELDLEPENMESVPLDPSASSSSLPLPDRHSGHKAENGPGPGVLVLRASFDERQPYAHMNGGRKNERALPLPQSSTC
Assay [5] addresses Aurora kinase B (Homo sapiens) (UniProt Q96GD4). Description: Inhibition of AuroraB at 10 uM.
Assay [6] deals with Serine/threonine-protein kinase N1 (Homo sapiens) (UniProt Q16512). Description: Inhibition of PRK1 at 10 uM.
Serine/threonine-protein kinase N1 (Homo sapiens), sequence (Q16512 2-942 limits assumed): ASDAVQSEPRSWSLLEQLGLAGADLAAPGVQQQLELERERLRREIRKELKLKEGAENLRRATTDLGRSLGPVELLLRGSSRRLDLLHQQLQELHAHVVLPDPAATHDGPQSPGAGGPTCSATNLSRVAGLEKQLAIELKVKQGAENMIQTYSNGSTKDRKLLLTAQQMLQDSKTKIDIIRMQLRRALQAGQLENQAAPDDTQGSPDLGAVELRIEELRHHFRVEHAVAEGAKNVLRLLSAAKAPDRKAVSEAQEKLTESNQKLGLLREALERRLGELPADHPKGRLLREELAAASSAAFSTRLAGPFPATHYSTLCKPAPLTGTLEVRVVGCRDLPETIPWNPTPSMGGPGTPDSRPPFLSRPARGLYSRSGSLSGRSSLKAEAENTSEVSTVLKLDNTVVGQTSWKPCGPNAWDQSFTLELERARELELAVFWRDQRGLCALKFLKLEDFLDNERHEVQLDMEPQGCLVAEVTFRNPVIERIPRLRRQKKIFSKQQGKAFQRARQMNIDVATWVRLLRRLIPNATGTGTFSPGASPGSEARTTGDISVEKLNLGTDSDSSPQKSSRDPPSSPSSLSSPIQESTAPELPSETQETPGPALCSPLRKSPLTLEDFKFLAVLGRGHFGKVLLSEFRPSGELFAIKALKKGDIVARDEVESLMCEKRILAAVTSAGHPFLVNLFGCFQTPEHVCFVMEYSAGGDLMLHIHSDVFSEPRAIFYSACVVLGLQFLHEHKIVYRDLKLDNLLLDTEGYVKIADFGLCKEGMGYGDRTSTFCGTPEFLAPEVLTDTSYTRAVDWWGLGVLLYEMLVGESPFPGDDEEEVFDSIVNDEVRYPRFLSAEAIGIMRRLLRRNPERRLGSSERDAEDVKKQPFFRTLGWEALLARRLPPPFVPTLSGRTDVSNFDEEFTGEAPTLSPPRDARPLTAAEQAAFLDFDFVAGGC
Assay [7] has as its target Serine/threonine-protein kinase PLK1 (Homo sapiens) (UniProt P53350). Description: Inhibition of PLK1 at 10 uM.
Assay [8] concerns the target Proto-oncogene tyrosine-protein kinase Src (Homo sapiens) (UniProt P12931). Description: Inhibition of SRC at 10 uM.
Assay [9] addresses Focal adhesion kinase 1 (Homo sapiens) (UniProt Q05397). Briefly: Inhibition of FAK at 10 uM.
In assay [10] the test system is Serine/threonine-protein kinase B-raf (Homo sapiens), P15056 [V600E]. Briefly: Inhibition of BRAF V600E mutant at 10 uM.
The target in assay [11] is Insulin receptor (Homo sapiens) (UniProt P06213). Description: Inhibition of INSR at 10 uM.
Insulin receptor (Homo sapiens), sequence (P06213 28-758 limits assumed): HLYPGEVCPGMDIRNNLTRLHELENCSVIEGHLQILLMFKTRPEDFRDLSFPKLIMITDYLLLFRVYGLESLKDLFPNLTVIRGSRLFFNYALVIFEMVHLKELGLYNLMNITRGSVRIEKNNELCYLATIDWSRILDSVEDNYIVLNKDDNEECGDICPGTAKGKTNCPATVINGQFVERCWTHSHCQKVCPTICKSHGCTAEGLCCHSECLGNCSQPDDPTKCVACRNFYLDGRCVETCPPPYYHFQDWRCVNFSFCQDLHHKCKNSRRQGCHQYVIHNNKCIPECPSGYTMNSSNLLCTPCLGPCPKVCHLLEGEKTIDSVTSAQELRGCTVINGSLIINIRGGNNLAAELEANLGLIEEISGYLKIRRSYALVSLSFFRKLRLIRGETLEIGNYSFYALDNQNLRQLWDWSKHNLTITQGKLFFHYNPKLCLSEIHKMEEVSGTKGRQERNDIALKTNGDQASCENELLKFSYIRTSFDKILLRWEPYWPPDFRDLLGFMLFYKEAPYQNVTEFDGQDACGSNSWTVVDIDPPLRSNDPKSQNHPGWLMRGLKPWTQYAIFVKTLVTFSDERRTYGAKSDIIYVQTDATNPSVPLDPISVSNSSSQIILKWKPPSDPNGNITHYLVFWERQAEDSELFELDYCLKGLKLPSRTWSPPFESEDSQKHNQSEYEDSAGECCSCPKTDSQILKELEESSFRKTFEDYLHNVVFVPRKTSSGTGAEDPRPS
Insulin receptor (Homo sapiens), sequence (P06213 763-1382 limits assumed): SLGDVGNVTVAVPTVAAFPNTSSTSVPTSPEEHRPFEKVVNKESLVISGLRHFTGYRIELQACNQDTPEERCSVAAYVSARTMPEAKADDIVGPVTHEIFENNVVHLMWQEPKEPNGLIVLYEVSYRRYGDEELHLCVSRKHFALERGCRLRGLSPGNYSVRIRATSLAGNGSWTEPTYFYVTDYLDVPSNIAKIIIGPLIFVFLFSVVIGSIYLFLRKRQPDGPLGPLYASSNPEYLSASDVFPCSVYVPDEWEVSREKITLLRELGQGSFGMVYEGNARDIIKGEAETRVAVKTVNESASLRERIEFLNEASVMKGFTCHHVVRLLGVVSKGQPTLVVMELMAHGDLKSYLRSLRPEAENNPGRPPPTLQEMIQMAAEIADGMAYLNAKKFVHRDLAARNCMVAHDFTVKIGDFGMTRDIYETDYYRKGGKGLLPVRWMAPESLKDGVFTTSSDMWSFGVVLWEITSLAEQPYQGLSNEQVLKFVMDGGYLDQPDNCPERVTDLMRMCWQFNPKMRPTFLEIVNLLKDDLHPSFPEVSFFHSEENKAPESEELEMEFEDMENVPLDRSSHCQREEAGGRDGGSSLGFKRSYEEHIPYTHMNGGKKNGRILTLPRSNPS
The target in assay [12] is T2, Mitogen-activated protein kinase 14 (Homo sapiens, UniProt Q16539). Description: Inhibition of p38alpha by immunosorbent based kinase assay.
The target in assay [13] is Vascular endothelial growth factor receptor 2 (Homo sapiens) (UniProt P35968). Briefly: Inhibition of VEGFR2 at 10 uM.
The target in assay [14] is RAC-alpha serine/threonine-protein kinase (Homo sapiens) (UniProt P31749). Description: Inhibition of AKT1 at 10 uM.
Assay [15] concerns the target Tyrosine-protein kinase receptor UFO (Homo sapiens) (UniProt P30530). Briefly: Inhibition of AXL at 10 uM.
For assay [16], the target named is T2, Mitogen-activated protein kinase 14. Description: Inhibition of p38alpha-dependent TNFalpha production in human whole blood.
In assay [17] the target is T3, Serine/threonine-protein kinase PLK4 (Homo sapiens) (UniProt O00444).
T3 sequence (whole entry): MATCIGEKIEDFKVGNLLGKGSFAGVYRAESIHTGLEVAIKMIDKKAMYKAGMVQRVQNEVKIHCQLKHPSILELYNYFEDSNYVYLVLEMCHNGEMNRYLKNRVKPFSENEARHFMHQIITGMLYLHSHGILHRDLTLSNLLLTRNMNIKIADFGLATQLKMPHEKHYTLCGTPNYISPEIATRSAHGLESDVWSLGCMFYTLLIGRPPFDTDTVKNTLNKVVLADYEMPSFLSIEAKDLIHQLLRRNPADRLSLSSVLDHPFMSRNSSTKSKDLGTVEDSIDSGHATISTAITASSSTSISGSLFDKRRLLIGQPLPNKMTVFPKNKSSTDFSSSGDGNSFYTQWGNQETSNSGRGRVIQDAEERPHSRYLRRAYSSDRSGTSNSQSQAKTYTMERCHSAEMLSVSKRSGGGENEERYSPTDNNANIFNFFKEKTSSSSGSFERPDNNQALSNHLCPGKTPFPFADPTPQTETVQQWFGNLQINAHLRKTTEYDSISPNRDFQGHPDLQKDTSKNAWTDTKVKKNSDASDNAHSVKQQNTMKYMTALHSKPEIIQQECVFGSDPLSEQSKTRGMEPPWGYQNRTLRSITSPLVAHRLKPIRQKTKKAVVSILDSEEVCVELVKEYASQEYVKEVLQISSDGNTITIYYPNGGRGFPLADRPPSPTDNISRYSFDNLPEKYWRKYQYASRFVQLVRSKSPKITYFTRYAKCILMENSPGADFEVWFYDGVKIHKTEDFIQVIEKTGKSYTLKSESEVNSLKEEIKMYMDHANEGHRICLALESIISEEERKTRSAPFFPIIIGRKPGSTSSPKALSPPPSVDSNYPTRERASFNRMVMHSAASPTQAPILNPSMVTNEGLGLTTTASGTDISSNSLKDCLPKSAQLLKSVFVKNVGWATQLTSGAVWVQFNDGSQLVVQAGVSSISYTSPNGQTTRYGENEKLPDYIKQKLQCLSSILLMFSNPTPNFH
Briefly: Inhibition of SAK at 10 uM.

The target of assay [18] is BDNF/NT-3 growth factors receptor (Homo sapiens) (UniProt Q16620). Briefly: Inhibition of TRKB at 10 uM.

Focal adhesion kinase 1 (Homo sapiens), sequence (Q05397 2-1052 limits assumed): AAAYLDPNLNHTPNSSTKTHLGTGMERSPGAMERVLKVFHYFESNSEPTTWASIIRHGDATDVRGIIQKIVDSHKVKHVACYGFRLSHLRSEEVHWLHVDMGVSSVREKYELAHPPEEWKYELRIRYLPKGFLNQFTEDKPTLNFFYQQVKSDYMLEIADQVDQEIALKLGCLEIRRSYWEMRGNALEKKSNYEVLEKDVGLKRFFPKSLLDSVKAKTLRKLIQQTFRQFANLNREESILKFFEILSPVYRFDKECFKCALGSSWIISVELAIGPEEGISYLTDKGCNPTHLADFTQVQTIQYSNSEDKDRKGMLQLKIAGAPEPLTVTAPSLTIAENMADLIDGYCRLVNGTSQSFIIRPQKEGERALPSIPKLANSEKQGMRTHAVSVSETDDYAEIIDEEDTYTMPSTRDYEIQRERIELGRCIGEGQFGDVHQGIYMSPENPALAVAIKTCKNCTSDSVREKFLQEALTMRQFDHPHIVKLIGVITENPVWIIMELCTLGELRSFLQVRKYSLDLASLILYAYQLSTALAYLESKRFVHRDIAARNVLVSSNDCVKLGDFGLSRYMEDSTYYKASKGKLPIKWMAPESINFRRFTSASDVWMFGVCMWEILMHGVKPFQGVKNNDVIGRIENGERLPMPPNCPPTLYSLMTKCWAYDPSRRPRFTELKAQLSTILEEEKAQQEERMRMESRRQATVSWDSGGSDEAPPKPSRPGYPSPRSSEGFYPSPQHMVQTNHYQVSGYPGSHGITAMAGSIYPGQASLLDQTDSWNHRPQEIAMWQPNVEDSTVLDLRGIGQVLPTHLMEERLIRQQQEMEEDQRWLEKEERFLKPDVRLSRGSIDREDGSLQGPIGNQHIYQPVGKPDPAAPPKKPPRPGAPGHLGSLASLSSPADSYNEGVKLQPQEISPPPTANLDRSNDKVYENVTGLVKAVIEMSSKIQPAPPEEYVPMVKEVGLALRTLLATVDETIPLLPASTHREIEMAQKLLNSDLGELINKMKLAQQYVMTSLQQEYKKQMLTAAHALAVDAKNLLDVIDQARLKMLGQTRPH
Casein kinase II subunit alpha (Homo sapiens), sequence (P68400 whole entry, looked up): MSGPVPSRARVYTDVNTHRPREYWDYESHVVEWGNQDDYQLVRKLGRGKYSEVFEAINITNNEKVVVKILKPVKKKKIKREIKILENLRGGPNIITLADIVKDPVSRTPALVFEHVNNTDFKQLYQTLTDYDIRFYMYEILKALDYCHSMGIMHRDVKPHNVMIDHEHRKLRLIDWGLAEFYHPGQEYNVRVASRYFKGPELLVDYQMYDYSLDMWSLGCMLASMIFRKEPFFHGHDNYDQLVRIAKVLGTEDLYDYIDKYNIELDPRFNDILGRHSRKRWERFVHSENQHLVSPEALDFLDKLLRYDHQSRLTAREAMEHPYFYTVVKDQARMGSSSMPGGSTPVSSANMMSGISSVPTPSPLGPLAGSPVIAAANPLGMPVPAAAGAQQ

With `O=C1c2ccc(Nc3ccc(F)cc3F)cc2CCc2ccc(OCCCO)cc21`, the inhibition entry in assay [1], in assay [2], in assay [3], in assay [4], in [5] and in [6] was “inactive” throughout. For the same molecule, the inhibition result in assay [7], in assay [8], in assay [9], in assay [10], in assay [11] and in assay [13] was “inactive” in each case. For the same molecule, the inhibition result in [14], in assay [15], in [17] and in [18] was “inactive” throughout. In addition, the values for the IC50 in [12] and in assay [16] were 0.008 µM and 0.19 µM, respectively.

`O=C1c2ccc(Nc3ccc(F)cc3F)cc2CCc2ccc(OCCO)cc21`: the inhibition entry in assay [1], in assay [2], in assay [3], in assay [4], in assay [5] and in [6] was “inactive” throughout. In addition, the inhibition entry in [7], in assay [8], in assay [9], in [10], in [11] and in assay [13] was “inactive” each time. Also, the inhibition entry in [14], in assay [15], in assay [17] and in assay [18] was “inactive” each time. Also, the half-maximal inhibitory concentration (IC50) in assay [12] came out at 0.01 µM; in assay [16], 0.48 µM.

Consider `CC1(C)OC[C@H](COc2cccc3c2CCc2cc(Nc4ccccc4N)ccc2C3=O)O1`, for which the inhibition result in assay [1], in assay [2], in assay [3], in [4], in assay [5] and in assay [6] was “inactive” throughout. Moreover, the inhibition entry in [7], in [8], in assay [9], in assay [10], in assay [11] and in assay [13] was “inactive” in each case. The inhibition result in assay [14], in assay [15], in [17] and in assay [18] was “inactive” in each case. For the same molecule, the IC50 in [12] amounted to 1.04 µM; in [16], 158 µM.

With `COc1cccc2c1CCc1cc(Nc3ccccc3N)ccc1C2=O`, the inhibition entry in [1], in assay [2], in assay [3], in assay [4], in [5] and in assay [6] was “inactive” in each case. The inhibition entry in [7], in assay [8], in [9], in [10], in assay [11] and in assay [13] was “inactive” in each case. Besides, the inhibition entry in assay [14], in [15], in [17] and in assay [18] was “inactive” each time. For the same molecule, the figures for the IC50 in [12] and in assay [16] were 0.08 µM and 52.1 µM, respectively.

As to `O=C1c2ccc(Nc3ccc(F)cc3F)cc2CCc2cc(OC[C@H](O)CO)ccc21`, the inhibition result in [1], in assay [2], in [3], in [4], in [5] and in assay [6] was “inactive” throughout. In addition, the inhibition entry in assay [7], in assay [8], in assay [9], in [10], in assay [11] and in [13] was “inactive” in each case. For the same molecule, the inhibition entry in [14], in [15], in [17] and in [18] was “inactive” in each case. For the same molecule, the figures for the IC50 in [12] and in [16] were 0.03 µM and 10.4 µM, respectively.

On to `CC1(C)OC[C@H](COc2ccc3c(c2)C(=O)c2ccc(Nc4ccc(F)cc4F)cc2CC3)O1`, for which the inhibition result in assay [1], in assay [2], in [3], in assay [4], in assay [5] and in assay [6] was “inactive” each time. Also, the inhibition result in assay [7], in [8], in assay [9], in [10], in assay [11] and in assay [13] was “inactive” throughout. Also, the inhibition result in [14], in assay [15], in [17] and in assay [18] was “inactive” each time. The IC50 in assay [12] is 0.02 µM; in assay [16], 0.23 µM.

Regarding `O=C1c2ccc(Nc3ccc(F)cc3F)cc2CCc2ccc(OC[C@@H](O)CO)cc21`, the inhibition entry in [1], in assay [2], in assay [3], in assay [4], in assay [5] and in assay [6] was “inactive” throughout. Moreover, the inhibition result in assay [7], in assay [8], in [9], in [10], in [11] and in [13] was “inactive” in each case. Moreover, the inhibition entry in [14], in [15], in assay [17] and in [18] was “inactive” throughout.
